Assays:
[1] = test system: vasomotor lesions and hemorhagia of the glandular portion of the stomach; assay: anti-ulcerogenic action against polymyxine B vasomotor lesions; type: in vivo, rat; conditions: 100 mg/kg oral before 1.5 mg/kg polymyxine B intraperitoneal; sacrifice two hours later; 15 rats versus 15 controls
Procedure: (§1) The compound according to the invention was studied for its preventive properties with respect to ulcers generated by various means. Thus the ratio in the reduction of gastric attacks caused by acetyl salicylic acid and phenylbutazone was determined, as well as the ratio in the reduction of stress ulcers and SHAY ulcers, or again vasomotor reactions to polymyxine B.
(§2) For these tests, male Wistar rats were used (from 250 to 350 g according to the test). For each test and each dose, 10 animals at least were treated.
In the tests with polymyxine B, 100 mg/kg of the compound according to the invention was administered by the oral route before the intraperitoneal injection of 1.5 mg/kg of polymyxine B, then, two hours later after this last injection, the rats were sacrificed. The injection of polymyxine B has the effect of causing vasomotor lesions and hemorhagia of the glandular portion of the stomach. It is by measurement of the extent of these lesions that the anti-ulcerogenic action of the compound was determined (A. BELL and Coll., Biologie et gastro-enterologie, 1969, 2, 117-126-Suppt. No. 2 aux Archives francaises des maladies de l'appareil digestif, 1969, 58, 10-11, October-November).

[2] = test system: stress ulcer; assay: anti-ulcer activity: stress ulcer (total immobilization); type: in vivo, rat; conditions: 50 mg/kg oral, 1 hour before 18 hours immobilization; versus controls
Procedure: as §1, §2
For the stress ulcer, the rats, 1 hour after having received 50 mg/kg of the product according to the invention by the oral route, were totally immobilized for 18 hours in a cylindrical wire cage, according to the technique of ROSSI (C.R. Soc. Biol., 1956, 150, 2124-2126) and BONFILS (C.R. Soc. Biol., 1957, 151, 1149-1150). They were then sacrificed and examined.
(§3) In all the preceding tests, the results were obtained by examination of the gastric mucous membrane to determine the presence either of a congested area, or of more or less serious ulcerations.
(§4) Study of the levels of reduction of attacks in the treated animals, with respect to the controls, was effected by the method of O. FOUSSARD and G. […] (Therapie, 1972, 27, 705-721) applying the formula of J. M. LWOFF (J. Pharmacol., 1971, 2, 1, 81-83).

[3] = test system: phenylbutazone ulcer; assay: anti-ulcer activity: phenylbutazone ulcer; type: in vivo, rat; conditions: 50 mg/kg oral, 1 hour before 100 mg/kg phenylbutazone intraperitoneal; sacrifice 24 hours later; versus controls
Procedure: as §1, §2
(§5) In the case of acetyl salicylic acid (AAS) and of phenylbutazone, the test procedure was as follows:
(§6) administration by the oral route of 50 mg/kg of the compound in aqueous solution with 3% of gum arabic after 23 hours fasting;
(§7) initiation of ulcerogenesis 1 hour later, by the administration of 50 mg/kg of AAS by the oral route or of 100 mg/kg of phenylbutazone by the intraperitoneal route;
(§8) sacrifice of the animals 24 hours later and examination of the gastric mucous membrane.
(§9) The control animals only received AAS or phenylbutazone.
as §3
(§10) Study of the levels of reduction of attacks in the treated animals, with respect to the controls, was effected by the method of O. FOUSSARD and G. […]

[4] = test system: SHAY ulcer; assay: anti-ulcer activity: SHAY ulcer (ligature of the pylorus); type: in vivo, rat; conditions: 100 mg/kg oral, 1 hour before ligature of the pylorus, versus controls
Procedure: as §1, §2
The SHAY ulcer was produced in the fasting rat after 48 hours. 47 hours after the beginning of the fast, by the oral route, 100 mg/kg of the product to be tested was administered, then, 1 hour later, ligature of the pylorus was effected after light anesthesia with ether. The sacrifice of the animals took place 12 to 24 hours after the ligature.
as §3, §4

[5] = test system: acetyl salicylic acid ulcer; assay: anti-ulcer activity: acetyl salicylic acid ulcer; type: in vivo, rat; conditions: 50 mg/kg oral, 1 hour before 50 mg/kg AAS oral; sacrifice 24 hours later; versus controls
Procedure: as §1, §2, §5, §6, §7, §8, §9, §3, §10

[6] = acute toxicity in the rat, by the oral route; conditions: in vivo, single dose
Excerpt: The acute toxicity is expressed by the lethal dose 50, that is to say the dose resulting in the death of 50% of the animals.
This study has been carried out on groups of 10 Swiss male mice whose weight varied from 24 to 26 g, and on groups of six Wistar male rats of 120 to 125 g.
The administration was made in a single dose by the oral route in the rats and the mice, and also by the intravenous route in the case of the mice.

## CCN1CCCC1CNS(=O)(=O)c1cc(Cl)c(N)cc1OC (stereo not shown) [(I), chloro-5 methoxy-2 amino-4 N-(N-ethyl methyl-2 pyrrolidino) benzenesulfonamide]
[1]
  reduction in the lesions (polymyxine B): ~63%
[2]
  level of reduction of attacks, stress ulcer: 50.8%
[3]
  level of reduction of attacks, phenylbutazone ulcer: 46.9%
[4]; 12 hours of ligature
  level of reduction of attacks, SHAY ulcer, after 12 hours of ligature: 60.4%
[4]; 24 hours of ligature
  level of reduction of attacks, SHAY ulcer, after 24 hours of ligature: 46.1%
[5]
  level of reduction of attacks, acetyl salicylic acid ulcer: 40.0%
[6]
  LD50: 1500 mg/kg
